Measurements taken from US10457710B2, “Antimicrobial peptides, their variants and uses” (priority 2015, dated 2019).
Where a SMILES comes first, the peptide text is derived from it. [ ]: non-standard residue; d: D form.

Legend:
Type in all cases: cell-based
[1] = test system: C. parapsilosis; experiment: MIC, clinical yeast strains
How it was run: (§1)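 Broth microdilution with inocula adjusted to 5.0×10^5 cfu/ml; peptides tested at 0.125 to 128 μg/ml and incubated at 37° C for 20 to 24 hours. Bacteria were grown in Mueller Hinton broth, yeasts in potato dextrose broth. MIC was the lowest concentration showing no visible growth.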

[2] = test system: Candida albicans; experiment: MIC, clinical yeast strains
How it was run: as §1

[3] = test system: C. glabrata; experiment: MIC, clinical yeast strains
How it was run: as §1

[4] = test system: clinical strains of E. cloacae; experiment: MIC, microdilution, clinical strains; conditions: 0.02% BSA, 0.2% acetic acid
How it was run: (§2)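 MIC = lowest peptide concentration without visual growth after 20–24 h at 37° C. Range 0.125–128 μg/ml, inoculum 5.0×10^5 cfu/ml, microdilution format. Antifungal tests used potato dextrose broth; bacterial tests used MH broth.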

[5] = test system: clinical strains of Proteus mirabilis; experiment: MIC, microdilution, clinical strains; conditions: 0.02% BSA, 0.2% acetic acid
How it was run: as §2

[6] = test system: clinical strains of E. coli; experiment: MIC, microdilution, clinical strains; conditions: microdilution, Muller Hinton broth-cation adjusted, 0.02% BSA, 0.2% acetic acid
How it was run: as §2

[7] = test system: clinical strains of P. aeruginosa; experiment: MIC, microdilution, clinical strains; conditions: 0.02% BSA, 0.2% acetic acid
How it was run: as §2

[8] = test system: clinical strains of S. aureus; experiment: MIC, microdilution, clinical strains; conditions: 0.02% BSA, 0.2% acetic acid
How it was run: as §2

[9] = test system: clinical strains of S. pneumoniae; experiment: MIC, microdilution, clinical strains; conditions: 0.02% BSA, 0.2% acetic acid
How it was run: as §2

[10] = test system: clinical strains of Serratia marcescens; experiment: MIC, microdilution, clinical strains; conditions: 0.02% BSA, 0.2% acetic acid
How it was run: as §2

[11] = test system: clinical strains of K. pneumoniae; experiment: MIC, microdilution, clinical strains; conditions: 0.02% BSA, 0.2% acetic acid
How it was run: as §2

[12] = test system: C. quillermondiae; experiment: MIC, clinical yeast strains; design: Minimum inhibitory concentration: unit: μg/ml
How it was run: as §1

[13] = clinical yeast strain 1, D-form peptide, concentrations tested 0.125 to 128 μg/ml
[14] = clinical yeast strain 2, D-form peptide, concentrations tested 0.125 to 128 μg/ml
[15] = clinical yeast strain 3, D-form peptide, concentrations tested 0.125 to 128 μg/ml
[16] = clinical yeast strain 4, D-form peptide, concentrations tested 0.125 to 128 μg/ml
[17] = Enterobacter cloacae strain 1, Muller Hinton broth-cation adjusted
[18] = Enterobacter cloacae strain 2, Muller Hinton broth-cation adjusted
[19] = Enterobacter cloacae strain 3, Muller Hinton broth-cation adjusted
[20] = Enterobacter cloacae strain 4, Muller Hinton broth-cation adjusted
[21] = Enterobacter cloacae strain 5, Muller Hinton broth-cation adjusted
[22] = Proteus mirabilis strain 1, Muller Hinton broth-cation adjusted
[23] = Proteus mirabilis strain 2, Muller Hinton broth-cation adjusted
[24] = Proteus mirabilis strain 3, Muller Hinton broth-cation adjusted
[25] = Proteus mirabilis strain 4, Muller Hinton broth-cation adjusted
[26] = Proteus mirabilis strain 5, Muller Hinton broth-cation adjusted
[27] = Pseudomonas aeruginosa strain 1, Muller Hinton broth-cation adjusted
[28] = Pseudomonas aeruginosa strain 2, Muller Hinton broth-cation adjusted
[29] = Pseudomonas aeruginosa strain 3, Muller Hinton broth-cation adjusted
[30] = Pseudomonas aeruginosa strain 4, Muller Hinton broth-cation adjusted
[31] = Pseudomonas aeruginosa strain 5, Muller Hinton broth-cation adjusted
[32] = Staphylococcus aureus strain 1, Muller Hinton broth-cation adjusted
[33] = Staphylococcus aureus strain 2, Muller Hinton broth-cation adjusted
[34] = Staphylococcus aureus strain 3, Muller Hinton broth-cation adjusted
[35] = Staphylococcus aureus strain 4, Muller Hinton broth-cation adjusted
[36] = Staphylococcus aureus strain 5, Muller Hinton broth-cation adjusted
[37] = Streptococcus pneumoniae strain 1, Muller Hinton broth-cation adjusted
[38] = Streptococcus pneumoniae strain 2, Muller Hinton broth-cation adjusted
[39] = Streptococcus pneumoniae strain 3, Muller Hinton broth-cation adjusted
[40] = Streptococcus pneumoniae strain 4, Muller Hinton broth-cation adjusted
[41] = Streptococcus pneumoniae strain 5, Muller Hinton broth-cation adjusted
[42] = Serratia marcescens strain 1, Muller Hinton broth-cation adjusted
[43] = Serratia marcescens strain 2, Muller Hinton broth-cation adjusted
[44] = Serratia marcescens strain 3, Muller Hinton broth-cation adjusted
[45] = Serratia marcescens strain 4, Muller Hinton broth-cation adjusted
[46] = Serratia marcescens strain 5, Muller Hinton broth-cation adjusted
[47] = Klebsiella pneumoniae strain 1, Muller Hinton broth-cation adjusted
[48] = Klebsiella pneumoniae strain 2, Muller Hinton broth-cation adjusted
[49] = Klebsiella pneumoniae strain 3, Muller Hinton broth-cation adjusted
[50] = Klebsiella pneumoniae strain 4, Muller Hinton broth-cation adjusted
[51] = Klebsiella pneumoniae strain 5, Muller Hinton broth-cation adjusted

With `CC(C)C[C@@H](NC(=O)[C@@H](CCCCN)NC(=O)[C@@H](Cc1c[nH]c2ccccc12)NC(=O)[C@@H](CCCCN)NC(=O)[C@@H](C)NC(=O)[C@@H](Cc1c[nH]cn1)NC(=O)[C@@H](CC(C)C)NC(=O)[C@@H](CCCNC(=N)N)NC(=O)[C@@H](Cc1c[nH]c2ccccc12)NC(=O)[C@H](N)Cc1c[nH]c2ccccc12)C(=O)N[C@H](Cc1c[nH]c2ccccc12)C(=O)O` [Chain109D] (H-[dW][dW][dR][dL][dH][dA][dK][dW][dK][dL][dW]-OH) the “Minimum inhibitory concentration, C. parapsilosis strain 1” value [1, 13] was 128, the “Minimum inhibitory concentration, C. parapsilosis strain 2” value [1, 14] was 128 and the “Minimum inhibitory concentration, C. parapsilosis strain 3” value [1, 15] was 128. For the same compound, the “Minimum inhibitory concentration, C. parapsilosis strain 4” value [1, 16] was 8, the “Minimum inhibitory concentration, Candida albicans strain 1” value [2, 13] was 128 and the “Minimum inhibitory concentration, Candida albicans strain 2” value [2, 14] was 128. The “Minimum inhibitory concentration, Candida albicans strain 3” value [2, 15] was 128, the “Minimum inhibitory concentration, Candida albicans strain 4” value [2, 16] was 128 and the “Minimum inhibitory concentration, Candida albicans strain 5” value ([2]; clinical yeast strain 5, D-form peptide, concentrations tested 0.125 to 128 μg/ml) was 128. The “Minimum inhibitory concentration, C. glabrata strain 1” value [3, 13] was 128, the “Minimum inhibitory concentration, C. glabrata strain 2” value [3, 14] was 128 and the “Minimum inhibitory concentration, C. glabrata strain 3” value [3, 15] was 16. For the same compound, the “Minimum inhibitory concentration, C. glabrata strain 4” value [3, 16] was 64, the Minimum inhibitory concentration [4, 17] was 4 and the Minimum inhibitory concentration [4, 18] was 8. The Minimum inhibitory concentration [4, 19] was 8, the Minimum inhibitory concentration [4, 20] was 8 and the Minimum inhibitory concentration [4, 21] was 4. For the same compound, the Minimum inhibitory concentration [5, 22] was >128, the Minimum inhibitory concentration [5, 23] was 64 and the Minimum inhibitory concentration [5, 24] was 64. For the same compound, the Minimum inhibitory concentration [5, 25] was >128, the Minimum inhibitory concentration [5, 26] was >128 and the Minimum inhibitory concentration ([6]; Escherichia coli strain 1) was 16. The Minimum inhibitory concentration ([6]; Escherichia coli strain 2) was 4, the Minimum inhibitory concentration ([6]; Escherichia coli strain 3) was 4 and the Minimum inhibitory concentration ([6]; Escherichia coli strain 4) was 4. For the same compound, the Minimum inhibitory concentration ([6]; Escherichia coli strain 5) was 4, the Minimum inhibitory concentration [7, 27] was 16 and the Minimum inhibitory concentration [7, 28] was 16. For the same compound, the Minimum inhibitory concentration [7, 29] was 16, the Minimum inhibitory concentration [7, 30] was 16 and the Minimum inhibitory concentration [7, 31] was 8. It also gave a Minimum inhibitory concentration [8, 32] of 2, a Minimum inhibitory concentration [8, 33] of 4 and a Minimum inhibitory concentration [8, 34] of 2. It also gave a Minimum inhibitory concentration [8, 35] of 2, a Minimum inhibitory concentration [8, 36] of 2 and a Minimum inhibitory concentration [9, 37] of 16. It also gave a Minimum inhibitory concentration [9, 38] of 8, a Minimum inhibitory concentration [9, 39] of 2 and a Minimum inhibitory concentration [9, 40] of 8. The Minimum inhibitory concentration [9, 41] was 8, the Minimum inhibitory concentration [10, 42] was >128 and the Minimum inhibitory concentration [10, 43] was >128. For the same compound, the Minimum inhibitory concentration [10, 44] was >128, the Minimum inhibitory concentration [10, 45] was >128 and the Minimum inhibitory concentration [10, 46] was 64. For the same compound, the Minimum inhibitory concentration [11, 47] was 16, the Minimum inhibitory concentration [11, 48] was 8 and the Minimum inhibitory concentration [11, 49] was 8. The Minimum inhibitory concentration [11, 50] was 16, the Minimum inhibitory concentration [11, 51] was 8 and the “Minimum inhibitory concentration, C. quillermondiae strain 1” value [12, 13] was 128.

With `CC(C)C[C@@H](NC(=O)[C@@H](CCCCN)NC(=O)[C@@H](CCCCN)NC(=O)[C@@H](Cc1ccccc1)NC(=O)[C@@H](CC(C)C)NC(=O)[C@@H](Cc1c[nH]c2ccccc12)NC(=O)[C@@H](CCCNC(=N)N)NC(=O)[C@@H](Cc1c[nH]c2ccccc12)NC(=O)[C@@H](CCCCN)NC(=O)[C@@H](CCCNC(=N)N)NC(=O)[C@H](N)CCCCN)C(=O)O` [Chain310D] (H-[dK][dR][dK][dW][dR][dW][dL][dF][dK][dK][dL]-OH) the Minimum inhibitory concentration ([1]; C. parapsilosis clinical yeast strain 1) was 64, the Minimum inhibitory concentration ([1]; C. parapsilosis clinical yeast strain 2) was 64 and the Minimum inhibitory concentration ([1]; C. parapsilosis clinical yeast strain 3) was 64. The Minimum inhibitory concentration ([1]; C. parapsilosis clinical yeast strain 4) was 16, the Minimum inhibitory concentration ([2]; Candida albicans clinical yeast strain 1) was 16 and the Minimum inhibitory concentration ([2]; Candida albicans clinical yeast strain 2) was 16. The Minimum inhibitory concentration ([2]; Candida albicans clinical yeast strain 3) was 16, the Minimum inhibitory concentration ([2]; Candida albicans clinical yeast strain 4) was 16 and the Minimum inhibitory concentration ([2]; Candida albicans clinical yeast strain 5) was 16. For the same compound, the Minimum inhibitory concentration ([3]; C. glabrata clinical yeast strain 1) was 16, the Minimum inhibitory concentration ([3]; C. glabrata clinical yeast strain 2) was 16 and the Minimum inhibitory concentration ([3]; C. glabrata clinical yeast strain 3) was 128. The Minimum inhibitory concentration ([3]; C. glabrata clinical yeast strain 4) was 128, the Minimum inhibitory concentration [4, 17] was 128 and the Minimum inhibitory concentration [4, 18] was 64. The Minimum inhibitory concentration [4, 19] was 16, the Minimum inhibitory concentration [4, 20] was 8 and the Minimum inhibitory concentration [4, 21] was 16. For the same compound, the Minimum inhibitory concentration [5, 22] was >128, the Minimum inhibitory concentration [5, 23] was >128 and the Minimum inhibitory concentration [5, 24] was >128. The Minimum inhibitory concentration [5, 25] was >128, the Minimum inhibitory concentration [5, 26] was >128 and the Minimum inhibitory concentration ([6]; Escherichia coli strain 1) was 4. The Minimum inhibitory concentration ([6]; Escherichia coli strain 2) was 32, the Minimum inhibitory concentration ([6]; Escherichia coli strain 3) was 16 and the Minimum inhibitory concentration ([6]; Escherichia coli strain 4) was 16. It also gave a Minimum inhibitory concentration ([6]; Escherichia coli strain 5) of 16, a Minimum inhibitory concentration [7, 27] of 8 and a Minimum inhibitory concentration [7, 28] of 16. For the same compound, the Minimum inhibitory concentration [7, 29] was 16, the Minimum inhibitory concentration [7, 30] was 8 and the Minimum inhibitory concentration [7, 31] was 4. The Minimum inhibitory concentration [8, 32] was 8, the Minimum inhibitory concentration [8, 33] was 16 and the Minimum inhibitory concentration [8, 34] was 8. The Minimum inhibitory concentration [8, 35] was 8, the Minimum inhibitory concentration [8, 36] was 4 and the Minimum inhibitory concentration [9, 37] was 128. The Minimum inhibitory concentration [9, 38] was 128, the Minimum inhibitory concentration [9, 39] was 128 and the Minimum inhibitory concentration [9, 40] was 128. The Minimum inhibitory concentration [9, 41] was 64, the Minimum inhibitory concentration [10, 42] was >128 and the Minimum inhibitory concentration [10, 43] was >128. For the same compound, the Minimum inhibitory concentration [10, 44] was >128, the Minimum inhibitory concentration [10, 45] was >128 and the Minimum inhibitory concentration [10, 46] was >128. It also gave a Minimum inhibitory concentration [11, 47] of 64, a Minimum inhibitory concentration [11, 48] of 64 and a Minimum inhibitory concentration [11, 49] of 128. For the same compound, the Minimum inhibitory concentration [11, 50] was 64, the Minimum inhibitory concentration [11, 51] was 32 and the Minimum inhibitory concentration ([12]; C. quillermondiae clinical yeast strain 1) was 8.
